IC50 data for 14 molecules are collected here from patent publication US20160039802A1, “3-PYRIMIDIN-4-YL-OXAZOLIDIN-2-ONES AS INHIBITORS OF MUTANT IDH” (NOVARTIS AG, priority 2013, published 2016).

This test has as its target T1, Mutant IDH1 R132H (Homo sapiens, UniProt O75874, R132H).
T1 construct: His6 with PreScission site (N, cleaved yes); made in house; host or cells: E. coli Rosetta 2(DE3)
Kind of test: Mutant IDH1 biochemical assay: LC-MS detection of 2-HG. Further: mIDH R132H 0.25 nM, 5 µM NADPH. Particulars: mIDH R132H […], 5 uM NADPH, 100 uM alpha-KG, 45 minutes incubation; range where run multiple times. An excerpt:
Mutant IDH1 biochemical Sssay: LC-MS Detection of 2-HG.

T1 sequence (O75874 whole entry R132H): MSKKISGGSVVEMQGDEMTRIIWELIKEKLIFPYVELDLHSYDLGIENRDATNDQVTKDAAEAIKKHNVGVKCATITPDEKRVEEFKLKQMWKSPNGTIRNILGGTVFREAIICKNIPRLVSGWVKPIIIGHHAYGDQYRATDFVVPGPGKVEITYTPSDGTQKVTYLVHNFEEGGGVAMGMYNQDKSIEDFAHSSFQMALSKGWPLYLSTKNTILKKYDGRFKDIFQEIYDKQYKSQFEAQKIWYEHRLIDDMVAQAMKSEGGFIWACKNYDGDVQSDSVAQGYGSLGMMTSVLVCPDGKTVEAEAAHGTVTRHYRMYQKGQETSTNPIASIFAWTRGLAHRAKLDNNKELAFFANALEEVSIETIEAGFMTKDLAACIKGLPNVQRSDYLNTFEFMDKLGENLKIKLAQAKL

The molecule `Cc1cc(-c2cnc(C(C)Nc3nccc(N4C(=O)OC[C@]4(C)C4CC4)n3)nc2)ccc1F` (single isomer, unassigned) [Example 54] had an IC50 above 5000 nM.
The result for `C[C@H](Nc1nccc(N2C(=O)OC[C@]2(C)C2CC2)n1)c1ccc(CN2CCC(N)(CO)CC2)c(F)c1` [Example 42, (S)-3-(2-(((S)-1-(4-((4-amino-4-(hydroxymethyl)piperidin-1-yl)methyl)-3-fluorophenyl)ethyl)amino)pyrimidin-4-yl)-4-cyclopropyl-4-methyloxazolidin-2-one] reads 217 nM; that for `C[C@H](Nc1nccc(N2C(=O)OC[C@]2(C)C2CC2)n1)c1ccc(CN2CCC(O)(C(F)(F)F)CC2)c(F)c1` [Example 32, (S)-4-cyclopropyl-3-(2-(((S)-1-(3-fluoro-4-((4-hydroxy-4-(trifluoromethyl)piperidin-1-yl)methyl)phenyl)ethyl)amino)pyrimidin-4-yl)-4-methyloxazolidin-2-one], 13.3 nM; that for `CC(Nc1nccc(N2C(=O)OC[C@]2(C)C2CC2)n1)c1nc(-c2ccc(Cl)cc2)no1` (single isomer, unassigned) [Example 49], 2520 nM.
The result for `C[C@H](Nc1nccc(N2C(=O)OCC2(C)C2CC2)n1)c1ccc(CN2CCN(C)C(C)(C)C2)cc1` (single isomer, unassigned) [Example 55] reads 77.9 nM; that for `CC(Nc1nccc(N2C(=O)OC[C@@]2(C)C2CC2)n1)c1nc(-c2ccc(Cl)cc2)no1` (single isomer, unassigned) [Example 52], 32.6 to 54 nM; that for `C[C@H](Nc1nccc(N2C(=O)OCC2(C)C2CC2)n1)c1ccc(CN2CCN(C)CC2)cc1` (single isomer, unassigned) [Example 47], 703 nM.
Regarding `C[C@H](Nc1ncc(F)c(N2C(=O)OCC2(C)C2CC2)n1)c1ccc(CN2CCC(N(C)C)CC2)c(F)c1` (stereo partly drawn) [Example 36, 4-cyclopropyl-3-(2-(((S)-1-(4-((4-(dimethylamino)piperidin-1-yl)methyl)-3-fluorophenyl)ethyl)amino)-5-fluoropyrimidin-4-yl)-4-methyloxazolidin-2-one], the midpoint of inhibition, the IC50, lay at 963 nM.
For the molecule `C[C@H](Nc1nccc(N2C(=O)OC[C@]2(C)C2CC2)n1)c1ccc(CN2CCC(C)(N(C)C)CC2)c(F)c1` [Example 37, (S)-4-cyclopropyl-3-(2-(((S)-1-(4-((4-(dimethylamino)-4-methylpiperidin-1-yl)methyl)-3-fluorophenyl)ethyl)amino)pyrimidin-4-yl)-4-methyloxazolidin-2-one], inhibition was half-maximal at 28.6 nM (IC50).
The result for `C[C@H](Nc1nccc(N2C(=O)OCC2(C)C2CC2)n1)c1ccc(CN2CCN(C)C(C)(C)C2)cc1` (single isomer, unassigned) [Example 56] reads 527 nM; that for `C[C@H](Nc1nccc(N2C(=O)OCC2(C)C2CC2)n1)c1ccc(CN2CCN(C)CC2)cc1` (single isomer, unassigned) [Example 48], 2660 nM.
The result for `C[C@H](Nc1nccc(N2C(=O)OC[C@]2(C)C2CC2)n1)c1ccc(CN2CCC(C)(O)CC2)c(F)c1` [Example 31, (S)-4-cyclopropyl-3-(2-(((S)-1-(3-fluoro-4-((4-hydroxy-4-methylpiperidin-1-yl)methyl)phenyl)ethyl)amino)pyrimidin-4-yl)-4-methyloxazolidin-2-one] reads 267 nM.
The result for `C[C@H](Nc1nccc(N2C(=O)OC[C@]2(C)C2CC2)n1)c1ccc(CN2CCC(C)(N)CC2)c(F)c1` [Example 43, (S)-3-(2-(((S)-1-(4-((4-amino-4-methylpiperidin-1-yl)methyl)-3-fluorophenyl)ethyl)amino)pyrimidin-4-yl)-4-cyclopropyl-4-methyloxazolidin-2-one] reads 151 nM; that for `CC(Nc1nccc(N2C(=O)OC[C@@]2(C)C2CC2)n1)c1nc(-c2ccc(Cl)cc2)no1` (single isomer, unassigned) [Example 51], 3160 to 3260 nM.

What is called IC50 is the concentration that inhibits the measured activity by half. Lower therefore signals greater potency.
